# Columns and labels:
# [1] = system: target genes of PPARδ in murine myocytes (C2C12); assay: Expression of target genes of PPARδ (PDK4, CPT1b, UCP2, UCP3) in murine myocytes, quantitative RT-PCR; format: cell-based; details: murine myocytes in vitro
# Text: It is established that regulation of the expression of these genes is directly controlled by PPARδ in this cell type. The more the expression of the genes is increased, the greater the stimulating action of the compound according to the invention on metabolism in the muscle cells.
# Cells from the murine cell line C2C12 (obtained from ECACC) are cultivated in DMEM medium (Gibco; 41965-039) with addition of 1% L-glutamine (Gibco; 25030), 1% of penicillin/streptomycin (VWR; BWSTL0022/100) and 10% decomplemented fetal calf serum (FCS. Gibco; 10270-106).
# The cells are seeded on 24-well plates at a density of 50·10^3 cells/well. At confluence, the medium is replaced with a differentiating medium (basal medium with addition of 2% of horse serum (Gibco; 26050-088)), then incubated at 37° C. and 5% CO2 for 4 days in order to differentiate them to myocytes.
# After 5 days of differentiation, the cells are put in a deprivation medium (basal medium without serum) for 6 hours. The cells are then treated with the compounds according to the invention in the deprivation medium. Compounds 2, 4, 7, 11, 39, 40, 46, 49 and 72 were in dose effect, corresponding to 1×, 10× and 100× their EC50 PPARδ. The compounds according to the invention were dissolved in dimethylsulfoxide (DMSO, Sigma; D5879). The cells were treated for 24 h at 37° C., 5% CO2. The effect of the compounds according to the invention was compared with the effect of DMSO alone.
# After treatment, the total RNA is extracted from the cells using the NucleoSpine® 96 RNA kit (Macherey Nagel, Hoerdt, France) following the manufacturer's instructions.
# 1 μg of total RNA (quantified based on the UV spectrophotometer reading) was then reverse-transcribed to complementary DNA by reaction for 1 hour at 37° C. in a total volume of 30 μl containing buffer 1× (Invitrogen), 1.5 mM of DTT, 0.18 mM of dNTPs (Promega), 200 ng of pdN6 (Amersham), 30 U of RNase inhibitor (Promega) and 1 μl of MMLV-RT (Invitrogen).
# (§1) The quantitative PCR experiments were carried out using the MyiQ Single-Color Real-Time PCR Detection System (Biorad, Marnes-la-Coquette, France) and were performed using the iQ SYBR Green Supermix kit following the supplier's recommendations, in 96-well plates, on 5 μl of diluted reverse-transcription reaction mixtures with a hybridization temperature of 60° C. Primer pairs specific to the PDK4, CPT1b, UCP2 and UCP3 genes under investigation were used:
# The amount of fluorescence emitted is directly proportional to the amount of complementary DNA present at the start of the reaction and amplified during PCR. For each target investigated, a range is produced by successive dilutions of a pool constituted of a few microliters of various reverse-transcription reaction mixtures. The relative expression levels of each target are thus determined using the efficacy curves obtained with the points in the range.
# The levels of expression of the genes of interest were then normalized relative to the level of expression of the reference gene 36B4 (whose specific primers are: sense primer: 5′-[…]-3′ (SEQ ID No. 19) and antisense primer: 5′-[…]-3′ (SEQ ID No. 20)). The induction factor, i.e. the ratio of the relative signal (induced by the compound according to the invention) to the mean of the relative values of the control group, was then calculated. The higher this factor, the greater the activating character of the compounds according to the invention with respect to gene expression. The final result is represented as the mean of the induction values in each experimental group.
# [2] = system: MCP1 and MMP9 genes in human monocytes (THP1); assay: Expression of MCP1 and MMP9 in human monocytes stimulated with PMA, quantitative RT-PCR; format: cell-based; details: 24 h
# Description: The antiinflammatory effects of the compounds according to the invention were evaluated by measuring the secretion and expression of macrophages chemoattractant protein (MCP1) and of matrix metalloproteinase 9 (MMP9) by monocytes treated with the compounds according to the invention for 24 hours and stimulated with PMA (phorbol 12-myristate 13-acetate, which causes an inflammatory response of the cells). The more the amount of MCP1 secreted is reduced, the greater the inhibitory action of the compounds according to the invention on the inflammatory reaction. Similarly, the more the expression of the genes coding for MCP1 and MMP9 is inhibited, the greater the antiinflammatory effect of the compounds according to the invention.
# The THP1 human monocyte line (obtained from ATCC) is cultivated in RPMI1640 medium with addition of 25 mM Hepes (Gibco; 42401-018), 1% glutamine (Gibco; 25030-24) 1% penicillin/streptomycin (Biochrom AG; A 2213) and 10% decomplemented fetal calf serum (FCS. Gibco; 10270-106).
# The cells are seeded on 24-well plates (Primaria BD Falcon) at a density of 8.70·10^5 cells/well in the treatment medium (same composition as the culture medium but with 0.2% of decomplemented fetal calf serum) and in the presence of 5 ng/mL of phorbol 12-myristate 13-acetate (PMA) for inducing the inflammatory response.
# The compounds according to the invention were tested at 0.1, 0.3 and/or at 1 μm, and dissolved in dimethylsulfoxide (DMSO, Fluka; 41640). The cells are treated for 24 h at 37° C., 5% CO2. The effect of the compound according to the invention is compared with the effect of DMSO alone.
# After treatment, the total RNA is extracted from the cells using the NucleoSpin® 96 RNA kit (Macherey Nagel, Hoerdt, France) following the manufacturer's instructions.
# 1 μg of total RNA (quantified based on the reading of the UV spectrophotometer) was then reverse-transcribed to complementary DNA by reaction for 1 hour at 37° C. in a total volume of 30 μl containing buffer 1× (Invitrogen), 1.5 mM of DTT, 0.18 mM of dNTPs (Promega), 200 ng of pdN6 (Amersham), 30 U of RNase inhibitor (Promega) and 1 μl of MMLV-RT (Invitrogen).
# as §1, with “mixture” for “mixtures”, “MCP1” for “PDK4, CPT1b, UCP2”, “MMP9” for “UCP3”
# The amount of fluorescence emitted is directly proportional to the amount of complementary DNA present at the start of the reaction and amplified during PCR. […] The relative expression levels of each target are thus determined using the efficacy curves obtained with the points in the range.
# The levels of expression of the genes of interest were then normalized, […] relative to the level of expression of the reference gene 36B4 (whose specific primers are: sense primer: 5′-[…]-3′ (SEQ ID No. 19) and antisense primer: 5′-[…]-3′ (SEQ ID No. 20)). The induction factor, i.e. the ratio of the relative signal (induced by the compound according to the invention) to the mean of the relative values of the control group, was then calculated. […]
Compound,expression of genes involved in carbohydrate and lipid metabolism and in thermoregulation [1],expression of MCP1 in human monocytes ([2]; at 0.1 and 0.3 μm),expression of MCP1 in human monocytes ([2]; at 1 μm),expression of MMP9 in human monocytes ([2]; at 1 μm)
"CC(C)(Oc1ccc(CCC(=O)c2ccc(-c3ccc(C(F)(F)F)cc3)s2)c(Cl)c1Cl)C(=O)O [Compound 2, 2-(2,3-dichloro-4-(3-oxo-3-(5-(4-(trifluoromethyl)phenyl)thien-2-yl)propyl)phenoxy)-2-methylpropanoic acid]",stimulating effects,significant decrease,–,–
"CC(C)(Oc1ccc(CCC(O)c2ccc(-c3ccc(C(F)(F)F)cc3)s2)c(Cl)c1Cl)C(=O)O (stereo not drawn) [Compound 4, 2-(2,3-dichloro-4-(3-hydroxy-3-(5-(4-(trifluoromethyl)phenyl)thien-2-yl)propyl)phenoxy)-2-methylpropanoic acid]",stimulating effects,–,–,–
"CC(C)(Oc1ccc(CCC(OCc2ccccc2)c2ccc(-c3ccc(C(F)(F)F)cc3)s2)c(Cl)c1Cl)C(=O)O (stereo not drawn) [Compound 7, 2-(4-(3-(benzyloxy)-3-(5-(4-(trifluoromethyl)phenyl)thien-2-yl)propyl)-2,3-dichlorophenoxy)-2-methylpropanoic acid]",stimulating effects,–,significant decrease,significant decrease
"CC(C)(Oc1ccc(CCC(=O)c2cc(-c3ccc(C(F)(F)F)cc3)cs2)c(Cl)c1Cl)C(=O)O [Compound 11, 2-(2,3-dichloro-4-(3-oxo-3-(4-(4-(trifluoromethyl)phenyl)thien-2-yl)propyl)phenoxy)-2-methylpropanoic acid]",stimulating effects,–,significant decrease,significant decrease

# — patent US8088819B2, “Derivatives of substituted 3-phenyl-1-(phenylthienyl)propan-1-ones and of 3-phenyl-1-(phenylfuranyl) propan-1-ones, preparation and use” (priority 2006, dated 2012)
